Where no end group is shown, it is not given here.
Target: T1, γ-secretase (Homo sapiens, UniProt P49768)
T1 construct: The solubilized membrane preparations of A549 (16.5 µg total protein) were incubated with 100 µM LMDP or LMDP-lipo; endogenous in cells; host or cells: A549 cells, CHAPSO-solubilized membrane fraction
Assay: Cleavage of fluorescence-quenching substrate peptide probe by γ-secretase in solubilized A549 membrane fraction (competitive inhibition / inhibitor test)
Assay type: biochemical
Description: The membrane fraction was prepared according to previous reports. All procedures were carried out on ice. Cultured HeLa cells, A549 cells, MCF-7 cells and HUEhT-2 cells (about 1×10^8 cells) were pelleted. Cells were resuspended in a buffer containing 20 mM Hepes, pH 7.5, 50 mM KCl, 2 mM EGTA, and protease inhibitor cocktail, Complete Mini (Roche Applied Science), and homogenized using 15 strokes of a Dounce homogenizer with a tight pestle. The cellular homogenates were centrifuged at 800 × g for 10 min and rehomogenized as above. […] The total protein concentration was determined with a BCA Protein Assay Kit (Thermo scientific).
To measure γ-secretase activity, solubilized membrane preparations ([…] total protein) were incubated with eight µM fluorescence-quenching peptide substrate at 37°C overnight and centrifuged at 16,100 × g for 15 min. The fluorescence of supernatants was measured by Plate Infinite M200 (TECAN) with an excitation wavelength of 355 nm and emission wavelength of 440 nm.
To study LMDP cleavage by γ-secretase, the competitive inhibitory effect of LMDP or LMDP-lipo on the cleavage of the peptide substrate (the same as that used in 2.2) was evaluated. […] Then, the fluorescence intensity was measured as described in 2.2. […]

| IC50 (A549 solubilized membrane 16.5 µg protein, 5 µM peptide substrate, 0-100 µM LMDP, 37°C overnight, fluorescence ex 355/em 440 nm, n = 3, read-out: IC50, competitive inhibition of cleavage of fluorescent substrate peptide probe) [µM] | Compound | Inhibition of γ-secretase activity (A549 membrane fraction preincubated with DAPT 37°C 30 min, then substrate peptide probe 37°C overnight (Fig. S3)) |
| --- | --- | --- |
| – | C[C@H](NC(=O)Cc1cc(F)cc(F)c1)C(=O)N[C@H](C(=O)OC(C)(C)C)c1ccccc1 [DAPT, N-[N-(3,5-Difluorophenacetyl)-L-alanyl]-S-phenylglycine t-butyl ester] | about 60% |
| 29 | LHLMYVAAAAFVLLFFVGCGVLLSRKRRR [LMDP] | – |

— publication PMC4208851, “Development of Nanoparticles Incorporating a Novel Liposomal Membrane Destabilization Peptide for Efficient Release of Cargos into Cancer Cells” (PLoS ONE, 2014)
